The target in assay [1] is T1, Cholecystokinin receptor type A (Homo sapiens, UniProt P32238).
T1 sequence (P32238 whole entry): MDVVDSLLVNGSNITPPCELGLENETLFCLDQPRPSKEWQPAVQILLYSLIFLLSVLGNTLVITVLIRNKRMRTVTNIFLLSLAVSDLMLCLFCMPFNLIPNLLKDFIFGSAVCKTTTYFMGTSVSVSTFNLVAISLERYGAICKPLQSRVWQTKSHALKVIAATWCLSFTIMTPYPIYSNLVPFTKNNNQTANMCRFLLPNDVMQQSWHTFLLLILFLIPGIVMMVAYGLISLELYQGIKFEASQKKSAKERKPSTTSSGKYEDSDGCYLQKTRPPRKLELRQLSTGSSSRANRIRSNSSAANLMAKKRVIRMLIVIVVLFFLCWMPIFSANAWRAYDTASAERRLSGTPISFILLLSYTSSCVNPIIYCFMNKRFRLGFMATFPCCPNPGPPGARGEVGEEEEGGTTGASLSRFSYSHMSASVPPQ
The assay is described as follows: Compound was tested for its binding affinity towards Cholecystokinin type A receptor in pancreatic membranes. Type of assay: cell membranes.

The target in assay [2] is T2, Cholecystokinin receptor type A (Homo sapiens) (UniProt P32238).
T2 sequence (whole entry): T1 sequence (P32238 whole entry)
The assay is described as follows: Ratio of binding affinity of Cholecystokinin type A receptor […].

For assay [3], the target named is T3, Gastrin/cholecystokinin type B receptor (Homo sapiens, UniProt P32239).
T3 sequence (P32239 whole entry): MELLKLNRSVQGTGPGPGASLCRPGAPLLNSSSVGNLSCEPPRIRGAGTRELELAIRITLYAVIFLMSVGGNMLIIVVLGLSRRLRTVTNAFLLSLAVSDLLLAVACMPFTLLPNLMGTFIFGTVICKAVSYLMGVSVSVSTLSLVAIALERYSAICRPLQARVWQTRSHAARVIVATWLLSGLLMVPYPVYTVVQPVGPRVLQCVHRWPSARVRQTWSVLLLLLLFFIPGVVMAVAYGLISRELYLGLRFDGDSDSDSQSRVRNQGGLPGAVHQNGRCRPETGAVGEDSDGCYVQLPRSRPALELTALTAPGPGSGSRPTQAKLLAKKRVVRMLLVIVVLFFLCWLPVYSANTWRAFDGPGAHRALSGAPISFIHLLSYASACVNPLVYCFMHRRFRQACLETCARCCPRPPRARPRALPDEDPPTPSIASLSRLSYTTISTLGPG
The assay can be described thus: Compound was tested for its binding affinity towards Cholecystokinin type B receptor in cortical membranes (CNS). Type of assay: cell membranes.

Starred links: 1 amine or outer side, 2 acyl side, 3 side chain; linkers in the order of their positions; H or OH if unused. Non-standard residues stand in square brackets, D forms with d. Residues, ends and D or L forms follow the SMILES beside them. X1 = CCCC1C[C@@H](C(=O)[*:2])N([*:1])C1; NMeNle = CCCC[C@H](NC)C(=O)O; Nle = CCCC[C@H](N)C(=O)O

In the case of `CCCC[C@@H](C(=O)N[C@@H](CC(=O)OCc1ccccc1)[C@@H](Cc1ccccc1)C(N)=O)n1nnnc1[C@H](Cc1c[nH]c2ccccc12)NC(=O)CNC(=O)OC(C)(C)C` (mixture of isomers), the IC50 (commonly the point on the concentration scale where inhibition reaches its midpoint) in assay [1] is 0.364 µM; in assay [3], 4.25 µM. Also, the Ratio in assay [2] was determined as 0.09.
The matching figures for `CCCC[C@@H](C(=O)N[C@@H](CC(=O)OCc1ccccc1)[C@@H](Cc1ccccc1)C(N)=O)n1nnnc1[C@H](Cc1c[nH]c2ccccc12)NC(=O)OC(C)(C)C` (mixture of isomers): 0.0367 µM, 1.88 µM and 0.02.
With `CCCC[C@@H](C(=O)N[C@@H](CC(=O)O)C(=O)N[C@@H](Cc1ccccc1)C(N)=O)N(C)C(=O)[C@H](Cc1c[nH]c2ccccc12)NC(=O)CN` (H-GW[NMeNle]DF-NH2), in assay [1], the IC50 was over 10 µM.
Regarding `CCCCC(C(=O)OCc1ccccc1)n1nnnc1C(Cc1cn(C(=O)OCc2ccccc2)c2ccccc12)NC(=O)OCc1ccccc1` (stereo not drawn), the IC50 in assay [1] and in assay [3] was over 10 µM each time.
Regarding `CCCC1C[C@@H](C(=O)N[C@@H](CC(=O)O)C(=O)N[C@@H](Cc2ccccc2)C(N)=O)N(C(=O)[C@H](Cc2c[nH]c3ccccc23)NC(=O)CN)C1` (stereo partly drawn) (H-GW[X1]DF-NH2), the IC50 came out at 2.7 µM in assay [1] and 0.0019 µM in assay [3]. Moreover, the Ratio in assay [2] worked out at 1420.
Consider `CCCC[C@H](NC(=O)[C@H](Cc1c[nH]c2ccccc12)NC(=O)CN)C(=O)N[C@@H](CC(=O)O)C(=O)N[C@@H](Cc1ccccc1)C(N)=O` (H-GW[Nle]DF-NH2), for which the results for the IC50 in assay [1] and in assay [3] were 2.18 µM and 0.169 µM, respectively. Besides, in assay [2], the Ratio is 12.9.
On the same counts, the results for `CCCC[C@@H](C(=O)N[C@@H](CC(=O)O)[C@@H](Cc1ccccc1)C(N)=O)n1nnnc1[C@H](Cc1c[nH]c2ccccc12)NC(=O)CN` are over 10 µM, 4.53 µM and over 1.9.
